According to ChEMBL document CHEMBL1201862, “PubChem BioAssay data set” (2004):
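A five-concentration, 48-hour dose response in 96-well plates underlies each endpoint, interpolated linearly between surrounding concentrations. The concentration for 50% growth inhibition is given as GI50.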 Calls of active or inactive are those of the source. No stated cut-off is given here; in the data, active = GI50 up to about 1.1 µM and inactive = higher.

How the values were obtained:
Test in all cases: growth of human tumour cells (NCI), 48 h
[1] = tested on: HCT-116
[2] = tested on: RXF 393
[3] = tested on: CCRF-CEM
[4] = tested on: SNB-75
[5] = tested on: RPMI-8226
[6] = tested on: CAKI-1
[7] = tested on: NCI-H460
[8] = tested on: SN12C
[9] = tested on: KM12
[10] = tested on: MDA-N
[11] = tested on: SNB-19
[12] = tested on: COLO 205
[13] = tested on: LOX IMVI
[14] = tested on: NCI/ADR-RES
[15] = tested on: MCF7
[16] = tested on: OVCAR-3
[17] = tested on: SR
[18] = tested on: K562
[19] = tested on: EKVX
[20] = tested on: Hs-578T
[21] = tested on: SK-MEL-5
[22] = tested on: A498
[23] = tested on: UACC-257
[24] = tested on: SF-295
[25] = tested on: U-251
[26] = tested on: DU-145
[27] = tested on: TK-10
[28] = tested on: HCT-15
[29] = tested on: BT-549
[30] = tested on: SK-OV-3
[31] = tested on: UACC-62
[32] = tested on: OVCAR-5
[33] = tested on: SW-620
[34] = tested on: SF-268
[35] = tested on: HL-60
[36] = tested on: ACHN
[37] = tested on: Malme-3M
[38] = tested on: HT-29
[39] = tested on: NCI-H23
[40] = tested on: SK-MEL-28
[41] = tested on: 786-0
[42] = tested on: MDA-MB-435
[43] = tested on: HOP-62
[44] = tested on: MDA-MB-231
[45] = tested on: M14
[46] = tested on: SF-539
[47] = tested on: IGROV-1
[48] = tested on: NCI-H226
[49] = tested on: SK-MEL-2
[50] = tested on: PC-3
[51] = tested on: MOLT-4
[52] = tested on: OVCAR-8
[53] = tested on: A549
[54] = tested on: UO-31
[55] = tested on: HCC 2998
[56] = tested on: HOP-92
[57] = tested on: NCI-H522
[58] = tested on: T47D
[59] = tested on: OVCAR-4

Measured: GI50

O=C(CN1CCCCC1)c1ccc2[nH]c(=O)oc2c1
> 100 µM: [28]
active: [4] 0.957 µM
inactive: [1] > 100 µM | [2] > 100 µM | [3] > 100 µM | [5] > 100 µM | [6] > 100 µM | [7] > 100 µM | [8] > 100 µM | [9] > 100 µM | [10] > 100 µM | [11] > 100 µM | [12] > 100 µM | [13] > 100 µM | [14] > 100 µM | [15] > 100 µM | [16] > 100 µM | [17] > 100 µM | [18] > 100 µM | [19] > 100 µM | [20] > 100 µM | [21] > 100 µM | [22] > 100 µM | [23] > 100 µM | [24] > 100 µM | [25] > 100 µM | [26] > 100 µM | [27] > 100 µM | [29] > 100 µM | [30] > 100 µM | [31] > 100 µM | [32] > 100 µM | [33] > 100 µM | [34] > 100 µM | [35] > 100 µM | [36] > 100 µM | [37] > 100 µM | [38] > 100 µM | [39] > 100 µM | [40] > 100 µM | [41] > 100 µM | [42] > 100 µM | [43] > 100 µM | [44] > 100 µM | [45] > 100 µM | [46] > 100 µM | [47] > 100 µM | [48] > 100 µM | [49] > 100 µM | [50] > 100 µM | [51] > 100 µM | [52] > 100 µM

CN(C)C(=O)Nc1cc2c3c(c1)CCCN3CCC2
> 10 µM: [28]
inactive: [1] > 10 µM | [2] > 10 µM | [53] > 10 µM | [3] > 10 µM | [4] > 10 µM | [5] > 10 µM | [6] > 10 µM | [7] > 10 µM | [54] > 10 µM | [8] > 10 µM | [9] > 10 µM | [10] > 10 µM | [11] > 10 µM | [12] > 10 µM | [13] > 10 µM | [14] > 10 µM | [15] > 10 µM | [16] > 10 µM | [17] > 10 µM | [18] > 10 µM | [19] > 10 µM | [55] > 10 µM | [20] > 10 µM | [56] > 10 µM | [21] > 10 µM | [22] 4.57 µM | [23] > 10 µM | [24] > 10 µM | [25] > 10 µM | [26] > 10 µM | [27] > 10 µM | [30] > 10 µM | [31] > 10 µM | [33] > 10 µM | [57] > 10 µM | [34] > 10 µM | [35] > 10 µM | [36] > 10 µM | [37] > 10 µM | [38] > 10 µM | [39] > 10 µM | [40] > 10 µM | [41] > 10 µM | [42] > 10 µM | [58] > 10 µM | [43] > 10 µM | [44] > 10 µM | [45] > 10 µM | [46] > 10 µM | [59] > 10 µM | [47] > 10 µM | [48] > 10 µM | [49] > 10 µM | [50] > 10 µM | [51] > 10 µM | [52] > 10 µM
